The values below come from EP0194571A1, “Heterocyclic disulfides, process for their preparation and pharmaceutical preparations containing them” (HOECHST AKTIENGESELLSCHAFT, priority 1985, dated 1986).

Holding throughout (format): in vivo, NMRI-Mäuse
Experiment [1] concerns Maus-Peritonealmakrophagen. Nature of the experiment: Activation of mononuclear phagocytes: oxidative metabolism (chemiluminescence) of peritoneal macrophages from treated mice. To be noted: relative to maximal activation by compound of Beispiel 8 = 100 %; 100 mg/kg i.p. The protocol: (§1) Hier wurde der Einfluß der nach Ausführungsbeispiel 8 erhaltenen Prüfsubstanz auf die Stimulation von Peritonealmakrophagen bei 6- 8 Wochen alten NMRI-Mäusen untersucht. Mäuseweibchen erhielten auf parenteralem oder oralem Wege die Prüfsubstanz in einer Dosis von 25 mg/kg, 50 mg/kg, 100 mg/kg und 200 mg/kg. Der Kontrollgruppe wurde gepufferte Kochsalzlösung verabreicht. Drei Tage nach den Injektionen wurden die Mäuse getötet, und es wurden die Peritonealmakrophagen der Tiere auf ihren Aktivierungszustand hin untersucht. Als Maß der Makrophagenaktivierung wurde zum einen die Sekretion der lyosomalen Enzyme (ß-Galactosidase, ß-Glucuronidase, N-Acetyl-ß-D-Glucosaminidase) bestimmt. Auf der anderen Seite konnte in vergleichbaren Makrophagenkulturen die Pinozytose durch die Aufnahme von kolloidalem Gold (^19^8Au) - wie sie dem Fachmann bekannt ist - untersucht werden. Die Höhe des oxidativen Stoffwechsels bei Makrophagen gilt als ein weiteres Maß für ihren Aktivierungszustand. Gemessen wird diese Aktivität unter Zuhilfenahme des Biolumaten durch Bestimmung der Chemolumineszenz.
(§2) Zu diesem Zweck wurden entweder in Petrischalen von 30 mm Durchmesser 3 x 10^6 Makrophagen mit 1 ml TC 199-Kulturmedium oder aber 10^6 Makrophagen mit 100 µl in Rundbogen-Polyäthylen-Röhrchen (zur Bestimmung der Chemolumineszenz) bei 5 % G02 und 37°C kultiviert.
(§3) Nach einstündiger Bebrütung wurden die Kulturen gewaschen, um schwimmende Zellen zu entfernen. Die Chemolumineszenz (Röhrchenkultur) wurde dann direkt bestimmt, während die Petrischalen erneut 24 Stunden bei 37°C bebrütet wurden und danach die Enzym- und Pinozytoseaktivität in den Kulturen bestimmt wurde. Es wurden die nachstehenden Ergebnisse erzielt.
Die parenterale sowie die orale Behandlung von NMRI-Mäusen mit der gemäß Beispiel 8 hergestellten Prüfsubstanz stimuliert die Makrophagenaktivität und hat damit eine immunitätstimulierende Wirkung. So wird der oxidative Stoffwechsel bei Makrophagen mit der Generierung von Sauerstoffradikalen und dem damit verbundenen meßbaren Licht deutlich erhöht. Bei Dosierungen von 25 mg/kg aufwärts kommt es zu einer dosisabhänigen Steigerung der Makrophagenaktivität sowohl bei parenteraler als auch oraler Applikation.
(§4) Wie im Experiment 2 beschrieben, wurden NMRI-Mäuse mit den erfindungsgemäßen Verbindungen behandelt.
(§5) Als Test zur Erfassung der Immunstimulation wurde die Funktion der Makrophagen (Chemolumineszenz und Enzymaktivität) überprüft.
(§6) Tabelle 8 zeigt die relative Wirksamkeit der Prüfsubstanzen bezogen auf die Verbindung aus Beispiel 8, deren maximale Aktivierung (Differenz zwischen Kontrolle und Stimulation) 100 % entspricht. Der Tabelle ist zu entnehmen, daß im Vergleich zu Makrophagen aus unbehandelten Tieren, diese Zellen auch durch alle Prüfsubstanzen in ihrer Chemolumineszenzreaktion stark stimuliert und in ihrem Gehalt an lysosomalen Enzymen deutlich erhöht waren.

Experiment [2] has as its system Maus-Peritonealmakrophagen. Nature of the experiment: Activation of mononuclear phagocytes: release of lysosomal hydrolases (exocytosis) by peritoneal macrophages from treated mice. To be noted: lysosomal enzyme activity, relative to maximal activation by compound of Beispiel 8 = 100 %; 100 mg/kg i.p. The protocol: as §1, §2, §3
Aus der Tabelle 3 ist zu entnehmen, daß Makrophagen von Kontrollmäusen nur geringe Mengen an lysosomalen Enzymen (ß-Glucuronidase, ß-Galactosidase, N-Acetyl-ß-D-Glucosaminidase) in den Kulturüberstand abgeben. Mononukleare Phagozyten von Mäusen, die parenteral oder oral mit der Prüfsubstanz 72 Stunden behandelt wurde, sezernieren die o.a. sauren Hydrolasen (ß-Glu, ß-Gal, N-Ac-Glu) deutlich mehr und weisen damit eine Dosiswirkungskurve auf, die bei allen gemessenen Enzymen eine Überlegenheit gegenüber den Kontrollen erkennen läßt. Es ist ersichtlich, daß die Prüfsubstanz eine stimulierende Wirkung auf die Makrophagenaktivität besitzt und zur Erhöhung der Enzymfreisetzung beiträgt.
as §4, §5, §6

Experiment [3] deals with zelluläre Immunantwort (DTH-Reaktion) gegen Schafserythrozyten. Put plainly: Delayed type hypersensitivity (DTH) reaction against sheep erythrocytes, foot swelling in mice. The settings on record: relative to maximal activation by compound of Beispiel 8 = 100 %, 1 x i.p. Tag 0.

`Oc1nc(SSc2nc(O)nn2-c2ccccc2)n(-c2ccccc2)n1` [Beispiel 1, Bis-(3-Hydroxy-1-phenyl-1,2,4-triazol-5-yl)-disulfid]: in experiment [1], the “Makrophagenaktivität Chemolumineszenz” value was 30%. Moreover, the “Makrophagenaktivität Exozytose” value in experiment [2] came to 48%.

Turning to `O=C(O)c1ccc2nc(SSc3nc4ccc(C(=O)O)cc4[nH]3)[nH]c2c1` [Beispiel 2, Bis-(5-Carboxy-benzimidazol-2-yl)-disulfid], the “Makrophagenaktivität Chemolumineszenz” value in experiment [1] is reported as 72%. The “Makrophagenaktivität Exozytose” value in experiment [2] is reported as 53%. The “DTH-Reaktion (SRBC)” value in experiment [3] (Dosis 20 mg/kg) came to 88%.

For the compound `C=C(Cl)Cn1c(SSc2nnc(O)c(=O)n2CC(=C)Cl)nnc(O)c1=O` [Beispiel 5], the “Makrophagenaktivität Chemolumineszenz” value in experiment [1] was found to be 37%. In experiment [2], the “Makrophagenaktivität Exozytose” value was 45%. In experiment [3] (Dosis 200 mg/kg), the “DTH-Reaktion (SRBC)” value is 61%.

Take `Cn1nc(O)c(=O)nc1SSc1nc(=O)c(O)nn1C` [Beispiel 6]: the “Makrophagenaktivität Chemolumineszenz” value in experiment [1] was 26%. Also, the “Makrophagenaktivität Exozytose” value in experiment [2] worked out at 33%. Also, in experiment [3] (Dosis 100 mg/kg), the “DTH-Reaktion (SRBC)” value was determined as 100%.

For `O=C(O)Cc1csc(SSc2nc(CC(=O)O)cs2)n1` [Beispiel 10, Bis-(4-Carboxymethyl-1,3-thiazol-2-yl)-disulfid], the “Makrophagenaktivität Chemolumineszenz” value in experiment [1] came to 66%. In addition, the “Makrophagenaktivität Exozytose” value in experiment [2] came out at 21%. The “DTH-Reaktion (SRBC)” value in experiment [3] (Dosis 10 mg/kg) is 112%.

On to `O=C(O)c1cnc(SSc2ncc(C(=O)O)s2)s1` [Beispiel 12, Bis-(5-Carboxy-1,3-thiazol-2-yl)-disulfid], for which the “Makrophagenaktivität Chemolumineszenz” value in experiment [1] is recorded as 39%. Also, the “Makrophagenaktivität Exozytose” value in experiment [2] amounted to 54%. Besides, the “DTH-Reaktion (SRBC)” value in experiment [3] (Dosis 100 mg/kg) is 96%.

On to `Cc1nc(SSc2nc(C)c(C(=O)O)s2)sc1C(=O)O` [Beispiel 13], for which, in experiment [1], the “Makrophagenaktivität Chemolumineszenz” value is reported as 81%. The “Makrophagenaktivität Exozytose” value in experiment [2] is given as 77%. Moreover, the “DTH-Reaktion (SRBC)” value in experiment [3] (Dosis 200 mg/kg) was 147%.

On to `Cc1sc(SSc2nc(CC(=O)O)c(C)s2)nc1CC(=O)O` [Beispiel 14, Bis-(4-Carboxymethyl-5-methyl-thiazol-2-yl)-disulfid], for which the “Makrophagenaktivität Chemolumineszenz” value in experiment [1] amounted to 97%. Besides, the “Makrophagenaktivität Exozytose” value in experiment [2] was found to be 93%. The “DTH-Reaktion (SRBC)” value in experiment [3] (Dosis 100 mg/kg) worked out at 118%.
